Source: patent US8703813B2, “Compound with spiro chiral carbon backbone, preparation method thereof, and pharmaceutical composition containing the same” (SNU R & DB Foundation, priority 2008, dated 2014)

Tests used:
[1] = Solubility in organic solvents; assay type: physicochemical
C3H/10T1/2 cells = experiment: Osteoblast formation activity (calcium deposition assay, Alizarin Red S); assay type: cell-based, mouse
Description: C3H/10T1/2 cells, which are mouse mesenchymal progenitor cells purchased from ATCC, were diluted in DMEM (Dulbecco's Modified Eagle Medium) medium containing 5.958 g/L HEPES, 3.7 g/L sodium bicarbonate, and 10% FBS (fetal bovine serum), and cultured in 24-well culture plates at a density of 4×10^4 cells/well, in the presence of 5% CO2 at 37° C. for 2 days. The cultured cells were grown to 90˜100% confluency in the culture plates, the cells were cultured in DMEM medium containing 10% FBS, to which 10 mM of β-glycerophosphate and 50μ/ml of ascorbic acid were added, in the presence of 5% CO2 at 37° C. for 6 days, to induce differentiation into osteoblast. The medium was exchanged every other day during differentiation. The C3H/10T1/2 cell line, in which differentiation into the osteoblast was induced, was washed with PBS (Phosphate Buffered Saline) once, and fixed with 70% ethanol at 20° C. for 1 hour. The cells after fixing were washed with cold PBS three times, and stained with 40 mM Alizarin Red S dye solution at room temperature for 20 minutes. The dye solution was removed and the cells were washed with distilled water three times in order to selectively observe only the cells differentiated into the osteoblast.
An aliquot 116V and an aliquot 116VI extracted and partitioned from sponges are dissolved in a DMSO solvent, and used to treat the C3H/10T1/2 cell line, mesenchymal progenitor cells, at concentrations of 1, 2.5, 5, 10, and 20 ug/ml. […] Since then, the same experiment was performed on the compound (1163), the compound 2 (1162), the compound 3 (1161), and the compound 4 (1164), which were purely separated from the aliquots 116V and 116VI, and as a result, it could be confirmed that the osteoblast differentiation ability was increased in the compounds 1, 3, and 4. […] To study a mechanism with respect to osteoblast differentiation ability, the C3H/10T1/2 cell lines were treated with the compound 1 and the compound 4 for 6 days, respectively. […] Also, the C3H/10T1/2 cell lines were treated with the compound 1 and the compound 4 for 6 days, respectively. […] Furthermore, it could be ascertained that combining of Runx2 and TAZ proteins was increased by treatment of the compounds and thus the activity of Runx2-meditated transcription was increased. The compound 5, which is an ester derivative of the compound 1 (1163), was synthesized in order to prepare a material having more excellent bioactivity, and the structure of the compound 5 obtained thus was determined. […] Therefore, the compounds of the present invention and derivatives thereof are expected to promote the differentiation of the osteoblast and thus play an innovative role in treatment of osteoporosis.

Runx2, Osteocalcin, Msx2 = experiment: Real time PCR of osteoblast differentiation mark factors; assay type: cell-based, mouse; conditions: C3H/10T1/2 treated for 6 days, RTPCR
Description: An aliquot 116V and an aliquot 116VI extracted and partitioned from sponges are dissolved in a DMSO solvent, and used to treat the C3H/10T1/2 cell line, mesenchymal progenitor cells, at concentrations of 1, 2.5, 5, 10, and 20 ug/ml. […] Since then, the same experiment was performed on the compound (1163), the compound 2 (1162), the compound 3 (1161), and the compound 4 (1164), which were purely separated from the aliquots 116V and 116VI, and as a result, it could be confirmed that the osteoblast differentiation ability was increased in the compounds 1, 3, and 4. […] To study a mechanism with respect to osteoblast differentiation ability, the C3H/10T1/2 cell lines were treated with the compound 1 and the compound 4 for 6 days, respectively. […] Also, the C3H/10T1/2 cell lines were treated with the compound 1 and the compound 4 for 6 days, respectively. […] Furthermore, it could be ascertained that combining of Runx2 and TAZ proteins was increased by treatment of the compounds and thus the activity of Runx2-meditated transcription was increased. The compound 5, which is an ester derivative of the compound 1 (1163), was synthesized in order to prepare a material having more excellent bioactivity, and the structure of the compound 5 obtained thus was determined. […]

LXRα = biological target: T1, LXRα (Homo sapiens, UniProt Q13133); experiment: LXR antagonistic activity, GAL-hLXR luciferase transfection assay in CV-1 cells; assay type: cell-based; conditions: antagonism, together with agonist TO901317 (2.5 μM), 24 hours
T1 sequence (Q13133 209-447 limits assumed): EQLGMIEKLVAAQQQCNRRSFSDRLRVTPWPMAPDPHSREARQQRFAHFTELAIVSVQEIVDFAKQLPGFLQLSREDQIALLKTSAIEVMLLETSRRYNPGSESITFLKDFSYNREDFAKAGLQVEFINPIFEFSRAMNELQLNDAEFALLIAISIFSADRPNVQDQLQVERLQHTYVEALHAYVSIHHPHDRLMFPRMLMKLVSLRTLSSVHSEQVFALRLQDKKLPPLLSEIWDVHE
Description: (§1) Animal cell line CV-1 was used in transfection search. Cells were cultured in DMEM medium within a cell culture device containing 5% carbon dioxide at 37° C. The medium contained 10% FBS (fetal bovine serum), 100 U/ml penicillin, and 100 μg/ml streptomycin. On day 1 of the experiment, CV 1 cells were seeded in 96 well plates at 5,000 cells/well. On day 2, the seeded cells were transfected with plasmid expressing GAL-hLXR, plasmid expressing Luciferase gene, and plasmid expressing β-galactocidase by using a transfection reagent, Superfect (QIAGEN). After 16 hours, the transfected cells were treated with the compound 1 dissolved in dimethylsulfoxide (DMSO) by the concentrations, together with the agonist, TO901317 (2.5 μM). Cells treated with dimethylsulfoxide having the final concentration of 1% were used as a negative control group, and cells treated with T0901317 having the final concentration of 500 nM were used as a positive control group. The cells were cultured for 24 hours, and lysed by using a lysis buffer. […] The β-galactosidase activity, after adding of an ONPG reagent, was measured using an ELISA reader. The measured Luciferase value was corrected by activity value of β-galactosidase. […] In addition, the activities on various nuclear receptors were measured by using the same method, in order to measure selectivity for various nuclear receptors.

LXRβ = biological target: T2, LXRβ (Homo sapiens, UniProt P55055); experiment: as above; assay type: cell-based; conditions: antagonism, together with agonist TO901317 (2.5 μM), 24 hours
T2 sequence (P55055 222-460 limits assumed): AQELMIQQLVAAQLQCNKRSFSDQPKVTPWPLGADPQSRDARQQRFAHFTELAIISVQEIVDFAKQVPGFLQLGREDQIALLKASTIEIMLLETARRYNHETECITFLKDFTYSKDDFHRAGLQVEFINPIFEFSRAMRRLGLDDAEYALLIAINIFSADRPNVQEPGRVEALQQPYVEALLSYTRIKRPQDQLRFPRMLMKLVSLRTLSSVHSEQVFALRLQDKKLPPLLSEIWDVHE
Description: as §1

3T3-L1 cells = experiment: Adipocyte differentiation inhibitory ability in 3T3-L1 cells; assay type: cell-based

Compound: CC(C)=CCC/C(C)=C/[C@H]1CC(C)=C[C@@]2(C=C(CO)[C@@H]3CC(=O)C(C)=C[C@@H]3O2)O1 [Compound 1]
- Solubility [1]: Easily Dissolved in Organic Solvent of Acetone, Methanol, DMSO, etc.
- osteoblast differentiation ability, concentration dependence (C3H/10T1/2 cells; C3H/10T1/2, 1, 2.5, 5, 10, and 20 ug/ml, 6 days): remarkably increased at the concentrations of up to 10 ug/ml in a concentration-dependent manner
- osteoblast differentiation ability (C3H/10T1/2 cells; C3H/10T1/2, calcium deposition): increased
- concentration at which cytotoxicity was observed (C3H/10T1/2 cells; C3H/10T1/2 during osteoblast differentiation): 20000 ng/mL
- transcription degree of differentiation mark factors (Runx2, Osteocalcin, Msx2, etc.) (Runx2, Osteocalcin, Msx2): remarkably increased
- IC50 (LXRα): 18.7 nM
- IC50 (LXRβ): 20.4 nM
- adipocyte differentiation inhibitory ability (3T3-L1 cells): very superior adipocyte differentiation inhibitory ability
